Patent US20070197532A1, “GLUCOKINASE ACTIVATORS” (priority 2005, published 2007)

What follows are molecules tested against T1, glucokinase (GK) (Homo sapiens, UniProt P35557) (assay: enzymatic glucokinase activity assay (ATP consumption, KinaseGlo luminescence)). Settings: recombinant GK; 5 μM ATP, 5 mM Glucose, 2% DMSO, 60 min at room temperature; Kact = concentration giving 50% of the maximal increase in GK activity; read-out: pKact.
T1 construct: I.D. No. 1 corresponds to residues 13-466 of glucokinase; made in house; host or cells: E. coli DH10b-T1r
T1 sequence (P35557 with tags, fused parts or gaps isoform P35557-2): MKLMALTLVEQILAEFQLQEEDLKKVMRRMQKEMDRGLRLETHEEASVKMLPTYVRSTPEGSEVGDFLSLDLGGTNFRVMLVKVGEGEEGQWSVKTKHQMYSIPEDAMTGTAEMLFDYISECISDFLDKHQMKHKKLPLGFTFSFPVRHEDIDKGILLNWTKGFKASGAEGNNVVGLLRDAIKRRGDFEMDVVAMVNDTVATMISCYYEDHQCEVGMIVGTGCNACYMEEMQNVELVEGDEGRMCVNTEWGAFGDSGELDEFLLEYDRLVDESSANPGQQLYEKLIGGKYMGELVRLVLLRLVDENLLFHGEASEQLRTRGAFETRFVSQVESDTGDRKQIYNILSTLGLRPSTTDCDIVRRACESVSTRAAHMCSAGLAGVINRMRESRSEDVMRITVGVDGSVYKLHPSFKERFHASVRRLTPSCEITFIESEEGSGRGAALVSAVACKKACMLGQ
Type: biochemical
Source text: The activity of compounds as glucokinase activators may be assayed in vitro, in vivo or in a cell line. Provided below is an enzymatic glucokinase activity assay.
Purified glucokinase may be obtained as follows. DNA encoding residues 12-465 of the full-length sequence of the human enzyme may be amplified by PCR and cloned into the HindIII and EcoRI sites of pFLAG-CTC (Sigma). SEQ. I.D. No. 1 corresponds to residues 13-466 of glucokinase.
The expression of recombinant glucokinase protein may be carried out by transformation and growth of DH10b-T1r E. coli cells incorporating the (pFLAG-CTC) plasmid in LB media. Protein expression can be induced in this system by the addition of IPTG to the culture medium.
Recombinant protein may be isolated from cellular extracts by passage over Sepharose Q Fast Flow resin (Pharmacia). This partially purified GK extract may then be further purified by a second passage over Poros HQ10 (Applied Biosystems). The purity of GK may be determined on denaturing SDS-PAGE gel. Purified GK may then be concentrated to a final concentration of 20.0 mg/ml. After flash freezing in liquid nitrogen, the proteins can be stored at −78° C. in a buffer containing 25 mM TRIS-HCl pH 7.6, 50 mM NaCl, and 0.5 mM TCEP.
The activation properties of compounds for GK may be determined using a black 384-well-plate format under the following reaction conditions: 25 mM Hepes pH 7.2, 25 mM NaCl, 10 mM MgCl2, 0.01% Brij35, 1 mM DTT, 5 μM ATP, 5 mM Glucose 2% DMSO. The amount of ATP consumed may be determined quantitatively by addition of equal volume of luciferase reagent (luciferase+beetle luciferin—KinaseGlo Luminescent Kinase Assay kit from Promega). The luminescence intensity may be measured by using the Analyst HT from LJL Biosystems.
The assay reaction may be initiated as follows: 4 μl of substrate mixture (12.5 μM ATP and 12.5 mM Glucose) was added to each well of the plate, followed by the addition of 2 μl of activator (2 fold serial dilutions for 11 data points for each activator) containing 10% DMSO. 4 μL of 1.25 nM GK solution may be added to initiate the reaction. The reaction mixture may then be incubated at room temperature for 60 min, and quenched and developed by addition of 10 μL of luciferase reagent. Luminescence intensities of the resulting reaction mixtures may be measured after a 10 min incubation at room temperature. The luminescence intensity may be measured by using the Analyst HT from LJL Biosystems.
pKact and % ACTmax values may be calculated by non-linear curve fitting of the compound concentrations and luminescence intensities to a standard inhibition/activation equation.

SMILES	EC50 [nM]
COc1cc(-c2ccc3ncn(CC4CCCCC4)c3c2)[nH]n1	≥ 5010
COc1ccccc1-c1nc(SCC(=O)N2CCOCC2)n[nH]1	≤ 2000
COc1cc([N+](=O)[O-])ccc1-c1cc(-c2ccccc2)n[nH]1	≤ 2000
COc1ccccc1-c1nc(SCc2ccccc2F)n[nH]1	2510 to 3980
COCCNc1ccc(-c2cc(-c3ccccc3OC)[nH]n2)cn1	2510 to 3980
COc1ccccc1-c1cc(-c2ccccc2Cl)n[nH]1	2510 to 3980
COc1ccc(NS(=O)(=O)c2ccccc2)cc1-c1cc(-c2ccccc2)n[nH]1	2510 to 3980
COc1cc(-c2cc(OCc3ccccc3C)cc(Oc3ccc(S(C)(=O)=O)cc3)c2)[nH]n1	≤ 2000
COc1ccc(F)cc1-c1cc(OCc2ccccc2F)n[nH]1	≥ 5010
COc1ccccc1-c1cc(-c2ccc(N(C)C)nc2)n[nH]1	2510 to 3980
Cc1ccccc1COc1cc(Oc2ccc(S(C)(=O)=O)cc2)cc(-c2cc(O)n[nH]2)c1	≥ 5010
COc1ccccc1-c1cc(-c2cccc(NC(=O)c3ccccc3)c2)n[nH]1	2510 to 3980
COc1ccc(F)cc1-c1cc(-c2cccc(F)c2)[nH]n1	2510 to 3980
COc1ccccc1-c1cc(-c2ccc(F)cc2)n[nH]1	2510 to 3980
COC[C@H](C)Oc1cc(OCc2ccccc2F)cc(-c2cc(OC)n[nH]2)c1	≥ 5010
Fc1ccc(-c2cc(-c3cccc(Oc4ccccc4)c3)[nH]n2)cc1	≤ 2000
COc1ccc(NC(=O)c2cncs2)cc1-c1cc(-c2ccccc2)n[nH]1	≥ 5010
CC1(C)Cc2cccc(-c3cc(-c4ccccc4)n[nH]3)c2O1	≤ 2000
Fc1ccc(-c2cc(-c3ccccc3Oc3ccccc3)[nH]n2)cc1	2510 to 3980
COc1ccccc1-c1nnc(SCC(=O)Nc2ccc(C)c(C)c2)[nH]1	≤ 2000
Clc1cccc(Oc2ccccc2-c2cc(-c3cccnc3)n[nH]2)c1	2510 to 3980

SMILES	EC50 [nM]
COc1cc(-c2cc(Oc3ccc(S(C)(=O)=O)cc3)cc(OC3CCCC3)c2)[nH]n1	≤ 2000
Fc1ccc(-c2cc(-c3cccc(Oc4ncccn4)c3)[nH]n2)cc1	≥ 5010
COc1ccccc1-c1cc(-c2cccc(N)c2)n[nH]1	2510 to 3980
COc1ccccc1-c1cc(-c2cccc(NC(C)=O)c2)n[nH]1	≥ 5010
COC[C@H](C)Oc1cc(Oc2ccc(S(C)(=O)=O)cc2)cc(-c2cc(OCC(=O)OC)n[nH]2)c1	2510 to 3980
COc1ccc(NC(=O)Cc2ccccc2)cc1-c1cc(-c2ccccc2)n[nH]1	≤ 2000
Cc1cccnc1COc1cc(Oc2ccc(S(C)(=O)=O)cc2)cc(-c2cc(O)n[nH]2)c1	≥ 5010
COc1ccccc1-c1cc(-c2cccc(C#N)c2)n[nH]1	2510 to 3980
Fc1ccccc1COc1cc(-c2cccc3c2OCC3)[nH]n1	≥ 5010
COC[C@H](C)Oc1cc(OCCc2ccsc2)cc(-c2cc(OC)n[nH]2)c1	≤ 2000
COc1cc(-c2cc(OCc3ncccc3C)cc(Oc3ccc(S(C)(=O)=O)cc3)c2)[nH]n1	≤ 2000
COc1ccc(NC(=O)c2ccccc2)cc1-c1cc(-c2ccccc2)n[nH]1	2510 to 3980
COCCOc1cc(OCc2ccccc2)ccc1-c1cc(-c2ccccc2)n[nH]1	≤ 2000
COc1cc(OCc2ccccc2)ccc1-c1cc(-c2ccc(F)cc2)n[nH]1	≤ 2000
COc1ccccc1-c1cc(OCc2ccccc2F)n[nH]1	≥ 5010
Fc1ccccc1CSc1n[nH]c(-c2ccccc2OCc2ccccc2)n1	≤ 2000
COc1ccc(NCc2ccccc2)cc1-c1cc(-c2ccccc2)n[nH]1	≥ 5010
COc1cc(-c2cc(OCc3ccccc3F)cc(Oc3ccc(S(C)(=O)=O)cc3)c2)[nH]n1	≤ 2000
COc1ccccc1-c1cc(-c2ccc(N3CCOCC3)nc2)n[nH]1	≥ 5010
COC[C@H](C)Oc1cc(OCc2ccc(S(C)(=O)=O)cc2)cc(-c2cc(OC)n[nH]2)c1	2510 to 3980
Cn1ccnc1COc1ccccc1-c1cc(-c2ccc(F)cc2)n[nH]1	≤ 2000

SMILES	EC50 [nM]
FC(F)(F)COc1ccc(OCC(F)(F)F)c(-c2ccn[nH]2)c1	≤ 2000
COc1ccccc1-c1nnc(SCC(=O)Nc2ccccc2[N+](=O)[O-])[nH]1	≤ 2000
COc1ccccc1-c1cc(-c2cccc(F)c2)[nH]n1	≥ 5010
COc1ccc(CNc2ccc(-c3cc(-c4ccccc4OC)[nH]n3)cn2)c(OC)c1	≤ 2000
c1ccc(COc2ccc(-c3cc(-c4ccccc4)n[nH]3)c(OCc3ccccn3)c2)cc1	≤ 2000
COC[C@H](C)Oc1cc(Oc2ccc(S(C)(=O)=O)cc2)cc(-c2cc(OC)n[nH]2)c1	≤ 2000
c1ccc(-c2cc(-c3ccccc3Oc3cccnc3)[nH]n2)cc1	2510 to 3980
Brc1cc2c(c(-c3cc(-c4ccccc4)n[nH]3)c1)OCC2	≥ 5010
c1ccc(-c2cc(-c3cccc4c3OCC4)[nH]n2)cc1	2510 to 3980
CS(=O)(=O)c1ccc(Oc2cc(OCc3ccccc3F)cc(-c3cc(O)n[nH]3)c2)cc1	≥ 5010
COc1ccc(COc2ccc(-c3cc(-c4ccccc4)n[nH]3)c(OC)c2)cc1	2510 to 3980
COc1ccccc1-c1cc(-c2ccccc2)n[nH]1	2510 to 3980
c1ccc(-c2cc(-c3ccccc3OCc3ccccn3)[nH]n2)cc1	2510 to 3980
COc1ccccc1-c1nc(SCC(=O)c2ccc(O)c(O)c2)n[nH]1	2510 to 3980
COc1ccc(NC(=O)c2ccoc2)cc1-c1cc(-c2ccccc2)n[nH]1	2510 to 3980
COc1ccccc1-c1cc(-c2ccc(C#N)cc2)n[nH]1	2510 to 3980
COc1cc(NC(=O)c2ccccc2)ccc1-c1cc(-c2ccccc2)n[nH]1	≤ 2000
COc1cc(NCc2ccccc2)ccc1-c1cc(-c2ccccc2)n[nH]1	2510 to 3980
COc1ccccc1-c1cc(-c2ccc(N)cc2)n[nH]1	≥ 5010
